Results from patent US9611221B2, “Histone demethylase inhibitors” (CELGENE QUANTICEL RESEARCH, INC., priority 2012, dated 2017).

Molecular target: Jarid1B (Homo sapiens (Human), UniProt Q9UGL1)
Test: Jarid1B in vitro enzyme inhibition assay (TR-FRET)
Assay type: biochemical
Conditions: 0.8 nM Jarid1B, 300 nM H3K4me3-biotin peptide, 2 μM alpha-ketoglutaric acid
Excerpt: (§1) This assay determines the ability of a test compound to inhibit Jarid1A, Jarid1B, and JMJD2C demethylase activity. Baculovirus expressed Jarid1A (GenBank Accession #NM_001042603, AA1-1090) was purchased from BPS Bioscience (Cat#50110). Baculovirus expressed Jarid1B (GenBank Accession #NM_006618, AA 2-751) was purchased from BPS Bioscience (Cat #50121) or custom made by MolecularThroughput. Baculovirus expressed JMJD2C (GenBank Accession #BC143571, AA 2-372) was purchased from BPS Bioscience (Cat#50105).
(§2) The ability of test compounds to inhibit the activity of Jarid1B was determined in 384-well plate format under the following reaction conditions: 0.8 nM Jarid1B, 300 nM H3K4me3-biotin labeled peptide (Anaspec cat #64357), 2 μM alpha-ketoglutaric acid in assay buffer of 50 mM HEPES, pH7.3, 0.005% Brij35, 0.5 mM TCEP, 0.2 mg/ml BSA, 50 μM sodium L-ascorbate, and 2 μM ammonium iron(II) sulfate. Reaction product was determined quantitatively by TR-FRET after the addition of detection reagent Phycolink Streptavidin-allophycocyanin (Prozyme) and Europium-anti-mono- or di-methylated histone H3 lysine 4 (H3K4me1-2) antibody (PerkinElmer) in the presence of 5 mM EDTA in LANCE detection buffer (PerkinElmer) at a final concentration of 25 nM and 1 nM, respectively.
(§3) The reaction mixture was incubated at room temperature for 30 minutes, and terminated by the addition of 6 μl of 5 mM EDTA in LANCE detection buffer containing 50 nM Phycolink Streptavidin-allophycocyanin and 2 nM Europium-anti-H3K4me1-2 antibody. Plates were read by EnVisionMultilabel Reader in TR-FRET mode (excitation at 320 nm, emission at 615 nm and 665 nm) after 1 hour incubation at room temperature. A ratio was calculated (665/615) for each well and fitted to determine inhibition constant (IC50).

Chain of Jarid1B (Q9UGL1 2-751): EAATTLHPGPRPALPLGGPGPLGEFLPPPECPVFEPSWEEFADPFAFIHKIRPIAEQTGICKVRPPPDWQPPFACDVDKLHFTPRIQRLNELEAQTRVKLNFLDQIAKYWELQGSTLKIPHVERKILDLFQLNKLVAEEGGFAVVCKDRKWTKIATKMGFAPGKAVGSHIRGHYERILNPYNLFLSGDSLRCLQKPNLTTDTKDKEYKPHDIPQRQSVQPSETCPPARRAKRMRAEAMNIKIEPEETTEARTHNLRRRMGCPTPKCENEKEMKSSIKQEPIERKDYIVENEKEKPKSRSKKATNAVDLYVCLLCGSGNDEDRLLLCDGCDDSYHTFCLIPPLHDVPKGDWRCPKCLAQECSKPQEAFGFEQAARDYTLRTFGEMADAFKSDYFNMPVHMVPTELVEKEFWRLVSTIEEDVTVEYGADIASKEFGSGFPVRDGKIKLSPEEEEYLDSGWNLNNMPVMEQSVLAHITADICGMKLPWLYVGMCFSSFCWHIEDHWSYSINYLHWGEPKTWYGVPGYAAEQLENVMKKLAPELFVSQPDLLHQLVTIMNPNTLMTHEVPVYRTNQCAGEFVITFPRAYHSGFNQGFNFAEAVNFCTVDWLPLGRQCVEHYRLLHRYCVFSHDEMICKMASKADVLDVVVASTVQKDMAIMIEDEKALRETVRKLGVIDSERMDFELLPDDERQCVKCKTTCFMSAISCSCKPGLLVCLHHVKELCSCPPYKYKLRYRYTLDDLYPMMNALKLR

Row | Compound | IC50 [nM]
1 | O=C(O)c1ccncc1NCc1ccccc1Nc1ccccc1 [Example 36, 3-{[2-(phenylamino)benzyl]amino}pyridine-4-carboxylic acid] | ≤ 100
2 | Cc1ccc(CNc2cnccc2C(=O)O)o1 [Example 40, 3-{[(5-methylfuran-2-yl)methyl]amino}pyridine-4-carboxylic acid] | ≤ 100
3 | O=C(O)c1ccncc1NCC1Cc2ccccc2O1 (stereo not drawn) [Example 43, 3-[(2,3-dihydro-1-benzofuran-2-ylmethyl)amino]pyridine-4-carboxylic acid] | ≤ 100
4 | O=C(O)c1ccncc1NCC1COc2ccccc2O1 (stereo not drawn) [Example 44, 3-[(2,3-dihydro-1,4-benzodioxin-2-ylmethyl)amino]pyridine-4-carboxylic acid] | ≤ 100
5 | O=C(O)c1ccncc1NCC1CCCc2ccccc21 (stereo not drawn) [Example 46, 3-[(1,2,3,4-tetrahydronaphthalen-1-ylmethyl)amino]pyridine-4-carboxylic acid] | ≤ 100
6 | CC1(CNc2cnccc2C(=O)O)CCCc2ccccc21 (stereo not drawn) [Example 49, 3-{[(1-methyl-1,2,3,4-tetrahydronaphthalen-1-yl)methyl]amino}pyridine-4-carboxylic acid] | 100 to 1000

Further lines, results first:

Row | IC50 [nM] | Compound
7 | 100 to 1000 | O=C(O)c1ccncc1NCc1cccc(OC(F)(F)F)c1 [Example 35, 3-{[3-(trifluoromethoxy)benzyl]amino}pyridine-4-carboxylic acid]
8 | ≤ 100 | O=C(O)c1ccncc1NCc1cccc(OCC2CC2)c1 [Example 37, 3-{[3-(cyclopropylmethoxy)benzyl]amino}pyridine-4-carboxylic acid]
9 | ≤ 100 | O=C(O)c1ccncc1NCc1coc2ccccc12 [Example 38, 3-[(1-benzofuran-3-ylmethyl)amino]pyridine-4-carboxylic acid]
10 | ≤ 100 | O=C(O)c1ccncc1NCc1cc2ccccc2o1 [Example 41, 3-[(1-benzofuran-2-ylmethyl)amino]pyridine-4-carboxylic acid]
11 | 100 to 1000 | O=C(O)c1ccncc1NCC12CC3CC(CC(C3)C1)C2 [Example 42, 3-[(adamantan-1-ylmethyl)amino]pyridine-4-carboxylic acid]
12 | ≤ 100 | O=C(O)c1ccncc1NC[C@H]1CCCc2ccccc21 [Example 47, 3-{[(1S)-1,2,3,4-tetrahydronaphthalen-1-ylmethyl]amino}pyridine-4-carboxylic acid]
13 | 100 to 1000 | O=C(O)c1ccncc1NC[C@@H]1CCCc2ccccc21 [Example 48, 3-{[(1R)-1,2,3,4-tetrahydronaphthalen-1-ylmethyl]amino}pyridine-4-carboxylic acid]
14 | ≤ 100 | O=C(O)c1ccncc1NCC1CCCc2ccc(C3CC3)cc21 (stereo not drawn) [Example 53, 3-{[(7-cyclopropyl-1,2,3,4-tetrahydronaphthalen-1-yl)methyl]amino}pyridine-4-carboxylic acid]

Molecular target: Jarid1A (Homo sapiens (Human), UniProt P29375)
Sequence (P29375 1-1090): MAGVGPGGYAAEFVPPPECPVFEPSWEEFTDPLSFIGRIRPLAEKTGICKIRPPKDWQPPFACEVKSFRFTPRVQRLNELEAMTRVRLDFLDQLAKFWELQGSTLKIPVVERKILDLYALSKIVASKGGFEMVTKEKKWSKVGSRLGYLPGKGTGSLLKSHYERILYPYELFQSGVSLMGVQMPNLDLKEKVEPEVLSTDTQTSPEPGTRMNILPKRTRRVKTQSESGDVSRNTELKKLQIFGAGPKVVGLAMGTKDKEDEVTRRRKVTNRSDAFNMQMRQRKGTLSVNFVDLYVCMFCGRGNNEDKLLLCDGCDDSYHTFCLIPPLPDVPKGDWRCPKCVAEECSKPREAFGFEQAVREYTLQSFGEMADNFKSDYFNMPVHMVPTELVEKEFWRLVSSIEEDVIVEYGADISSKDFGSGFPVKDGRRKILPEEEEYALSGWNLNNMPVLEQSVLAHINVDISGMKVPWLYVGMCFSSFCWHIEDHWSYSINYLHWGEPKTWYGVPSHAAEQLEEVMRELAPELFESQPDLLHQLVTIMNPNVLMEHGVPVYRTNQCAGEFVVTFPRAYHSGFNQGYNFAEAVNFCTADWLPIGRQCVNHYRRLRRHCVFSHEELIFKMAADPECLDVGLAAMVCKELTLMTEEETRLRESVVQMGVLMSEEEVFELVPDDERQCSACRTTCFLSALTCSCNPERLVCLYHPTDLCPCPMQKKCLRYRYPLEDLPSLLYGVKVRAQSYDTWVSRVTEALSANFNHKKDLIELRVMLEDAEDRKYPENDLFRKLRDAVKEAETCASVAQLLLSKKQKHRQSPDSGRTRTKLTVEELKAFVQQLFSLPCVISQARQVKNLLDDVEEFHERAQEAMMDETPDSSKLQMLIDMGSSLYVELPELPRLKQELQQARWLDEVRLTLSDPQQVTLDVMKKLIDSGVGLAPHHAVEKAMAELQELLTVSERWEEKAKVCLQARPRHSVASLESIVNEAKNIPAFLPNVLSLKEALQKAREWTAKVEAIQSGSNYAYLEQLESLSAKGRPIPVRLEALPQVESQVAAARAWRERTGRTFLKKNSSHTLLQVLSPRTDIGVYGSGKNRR
Test: Jarid1A in vitro enzyme inhibition assay (TR-FRET)
Assay type: biochemical
Conditions: 1 nM Jarid1A, 300 nM H3K4me3-biotin peptide, 2 μM alpha-ketoglutaric acid
Excerpt: as §1
as §2, with “The enzymatic assay of Jarid1A activity is based upon Time Resolved-Fluorescence Resonance Energy Transfer (TR-FRET) detection. The” for “The”, “Jarid1A” for “Jarid1B”, “1” for “0.8”, “Jarid1A,” for “Jarid1B,”
as §3

Row | Compound | IC50 [nM]
15 | O=C(O)c1ccncc1NCc1ccccc1Nc1ccccc1 [Example 36, 3-{[2-(phenylamino)benzyl]amino}pyridine-4-carboxylic acid] | ≤ 100
16 | Cc1ccc(CNc2cnccc2C(=O)O)o1 [Example 40, 3-{[(5-methylfuran-2-yl)methyl]amino}pyridine-4-carboxylic acid] | ≤ 100
17 | O=C(O)c1ccncc1NCC1Cc2ccccc2O1 (stereo not drawn) [Example 43, 3-[(2,3-dihydro-1-benzofuran-2-ylmethyl)amino]pyridine-4-carboxylic acid] | ≤ 100
18 | O=C(O)c1ccncc1NCC1COc2ccccc2O1 (stereo not drawn) [Example 44, 3-[(2,3-dihydro-1,4-benzodioxin-2-ylmethyl)amino]pyridine-4-carboxylic acid] | ≤ 100
19 | O=C(O)c1ccncc1NCC1CCCc2ccccc21 (stereo not drawn) [Example 46, 3-[(1,2,3,4-tetrahydronaphthalen-1-ylmethyl)amino]pyridine-4-carboxylic acid] | ≤ 100
20 | CC1(CNc2cnccc2C(=O)O)CCCc2ccccc21 (stereo not drawn) [Example 49, 3-{[(1-methyl-1,2,3,4-tetrahydronaphthalen-1-yl)methyl]amino}pyridine-4-carboxylic acid] | 100 to 1000

Further lines, results first:

Row | IC50 [nM] | Compound
21 | 100 to 1000 | O=C(O)c1ccncc1NCc1cccc(OC(F)(F)F)c1 [Example 35, 3-{[3-(trifluoromethoxy)benzyl]amino}pyridine-4-carboxylic acid]
22 | 100 to 1000 | O=C(O)c1ccncc1NCc1cccc(OCC2CC2)c1 [Example 37, 3-{[3-(cyclopropylmethoxy)benzyl]amino}pyridine-4-carboxylic acid]
23 | ≤ 100 | O=C(O)c1ccncc1NCc1coc2ccccc12 [Example 38, 3-[(1-benzofuran-3-ylmethyl)amino]pyridine-4-carboxylic acid]
24 | ≤ 100 | O=C(O)c1ccncc1NCc1cc2ccccc2o1 [Example 41, 3-[(1-benzofuran-2-ylmethyl)amino]pyridine-4-carboxylic acid]
25 | 100 to 1000 | O=C(O)c1ccncc1NCC12CC3CC(CC(C3)C1)C2 [Example 42, 3-[(adamantan-1-ylmethyl)amino]pyridine-4-carboxylic acid]
26 | ≤ 100 | O=C(O)c1ccncc1NC[C@H]1CCCc2ccccc21 [Example 47, 3-{[(1S)-1,2,3,4-tetrahydronaphthalen-1-ylmethyl]amino}pyridine-4-carboxylic acid]
27 | 100 to 1000 | O=C(O)c1ccncc1NC[C@@H]1CCCc2ccccc21 [Example 48, 3-{[(1R)-1,2,3,4-tetrahydronaphthalen-1-ylmethyl]amino}pyridine-4-carboxylic acid]
28 | ≤ 100 | O=C(O)c1ccncc1NCC1CCCc2ccc(C3CC3)cc21 (stereo not drawn) [Example 53, 3-{[(7-cyclopropyl-1,2,3,4-tetrahydronaphthalen-1-yl)methyl]amino}pyridine-4-carboxylic acid]

Molecular target: JMJD2C (Homo sapiens (Human), UniProt Q9H3R0)
Sequence (Q9H3R0 2-372): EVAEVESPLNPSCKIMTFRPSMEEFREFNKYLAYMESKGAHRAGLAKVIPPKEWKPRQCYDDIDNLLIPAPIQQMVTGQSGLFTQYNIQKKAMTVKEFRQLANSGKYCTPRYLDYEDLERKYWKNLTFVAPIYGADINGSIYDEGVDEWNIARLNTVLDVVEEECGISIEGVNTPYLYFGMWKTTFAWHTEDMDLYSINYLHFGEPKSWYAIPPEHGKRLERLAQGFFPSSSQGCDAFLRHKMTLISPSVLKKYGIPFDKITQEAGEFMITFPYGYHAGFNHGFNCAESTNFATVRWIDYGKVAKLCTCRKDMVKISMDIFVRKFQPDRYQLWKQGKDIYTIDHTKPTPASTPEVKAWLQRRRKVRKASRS
Test: JMJD2C in vitro enzyme inhibition assay (TR-FRET)
Assay type: biochemical
Conditions: 0.3 nM JMJD2C, 300 nM H3K9me3-biotin peptide, 2 μM alpha-ketoglutaric acid
Excerpt: as §1
The ability of test compounds to inhibit the activity of JMJD2C was determined in 384-well plate format under the following reaction conditions: 0.3 nM JMJD2C, 300 nM H3K9me3-biotin labeled peptide (Anaspec cat #64360), 2 μM alpha-ketoglutaric acid in assay buffer of 50 mM HEPES, pH7.3, 0.005% Brij35, 0.5 mM TCEP, 0.2 mg/ml BSA, 50 μM sodium L-ascorbate, and 2 μM ammonium iron(II) sulfate. Reaction product was determined quantitatively by TR-FRET after the addition of detection reagent Phycolink Streptavidin-allophycocyanin (Prozyme) and Europium-anti-di-methylated histone H3 lysine 9 (H3K9me2) antibody (PerkinElmer) in the presence of 5 mM EDTA in LANCE detection buffer (PerkinElmer) at a final concentration of 50 nM and 1 nM, respectively.
as §3, with “containing 100” for “containing 50”, “nM Europium-anti-H3K9me2” for “nM Europium-anti-H3K4me1-2”

Row | Compound | IC50 [nM]
29 | O=C(O)c1ccncc1NCc1ccccc1Nc1ccccc1 [Example 36, 3-{[2-(phenylamino)benzyl]amino}pyridine-4-carboxylic acid] | 100 to 1000
30 | Cc1ccc(CNc2cnccc2C(=O)O)o1 [Example 40, 3-{[(5-methylfuran-2-yl)methyl]amino}pyridine-4-carboxylic acid] | ≤ 100
31 | O=C(O)c1ccncc1NCC1Cc2ccccc2O1 (stereo not drawn) [Example 43, 3-[(2,3-dihydro-1-benzofuran-2-ylmethyl)amino]pyridine-4-carboxylic acid] | ≤ 100
32 | O=C(O)c1ccncc1NCC1COc2ccccc2O1 (stereo not drawn) [Example 44, 3-[(2,3-dihydro-1,4-benzodioxin-2-ylmethyl)amino]pyridine-4-carboxylic acid] | ≤ 100
33 | O=C(O)c1ccncc1NCC1CCCc2ccccc21 (stereo not drawn) [Example 46, 3-[(1,2,3,4-tetrahydronaphthalen-1-ylmethyl)amino]pyridine-4-carboxylic acid] | 100 to 1000
34 | CC1(CNc2cnccc2C(=O)O)CCCc2ccccc21 (stereo not drawn) [Example 49, 3-{[(1-methyl-1,2,3,4-tetrahydronaphthalen-1-yl)methyl]amino}pyridine-4-carboxylic acid] | 100 to 1000

Second part, the compound after the results:

Row | IC50 [nM] | Compound
35 | 100 to 1000 | O=C(O)c1ccncc1NCc1cccc(OC(F)(F)F)c1 [Example 35, 3-{[3-(trifluoromethoxy)benzyl]amino}pyridine-4-carboxylic acid]
36 | 100 to 1000 | O=C(O)c1ccncc1NCc1cccc(OCC2CC2)c1 [Example 37, 3-{[3-(cyclopropylmethoxy)benzyl]amino}pyridine-4-carboxylic acid]
37 | 100 to 1000 | O=C(O)c1ccncc1NCc1coc2ccccc12 [Example 38, 3-[(1-benzofuran-3-ylmethyl)amino]pyridine-4-carboxylic acid]
38 | ≤ 100 | O=C(O)c1ccncc1NCc1cc2ccccc2o1 [Example 41, 3-[(1-benzofuran-2-ylmethyl)amino]pyridine-4-carboxylic acid]
39 | ≤ 100 | O=C(O)c1ccncc1NCC12CC3CC(CC(C3)C1)C2 [Example 42, 3-[(adamantan-1-ylmethyl)amino]pyridine-4-carboxylic acid]
40 | 100 to 1000 | O=C(O)c1ccncc1NC[C@H]1CCCc2ccccc21 [Example 47, 3-{[(1S)-1,2,3,4-tetrahydronaphthalen-1-ylmethyl]amino}pyridine-4-carboxylic acid]
41 | 100 to 1000 | O=C(O)c1ccncc1NC[C@@H]1CCCc2ccccc21 [Example 48, 3-{[(1R)-1,2,3,4-tetrahydronaphthalen-1-ylmethyl]amino}pyridine-4-carboxylic acid]
42 | 100 to 1000 | O=C(O)c1ccncc1NCC1CCCc2ccc(C3CC3)cc21 (stereo not drawn) [Example 53, 3-{[(7-cyclopropyl-1,2,3,4-tetrahydronaphthalen-1-yl)methyl]amino}pyridine-4-carboxylic acid]
